Residues, ends and D or L forms follow the SMILES beside them.

Assay [1] has as its target T1, MMP-7 (Homo sapiens, UniProt P09237).
T1 sequence (P09237 95-267): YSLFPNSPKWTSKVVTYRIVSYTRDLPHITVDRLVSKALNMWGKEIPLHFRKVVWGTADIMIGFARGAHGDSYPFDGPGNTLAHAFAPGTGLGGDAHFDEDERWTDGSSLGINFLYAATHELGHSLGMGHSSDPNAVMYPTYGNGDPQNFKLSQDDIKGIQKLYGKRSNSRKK
In words: Matrix metalloproteinase inhibitory test, DQ-gelatin substrate. To be noted: flourescein conjugated gelatin; read-out: IC50 for the inhibition of MMP-7. The format is biochemical. Here is the method: (§1) Matrix Metalloproteinase Inhibitory Test
(§2) The assay was performed in microtiter plates. In each single well 1 μl enzyme, the inhibitor at the desired concentration and finally 5 μl substrate were added to PBS buffer (pH 7.0-7.5), final volume: 200 μl. The reaction mixture was incubated at 37° C. for 2 hours. The increase in fluorescence was continuously recorded, exciting at 485 nm and reading the emission at 530 nm, with a gain of 40.
(§3) Inhibitors:— o-phenantroline: 9.9 mg in 25 μl DMF (dimethylformamide→add 1 μl (final concentration: 10 mM) • synthetic inhibitors at different concentrations
(§4) Substrate: DQ-gelatin: 1 mg/ml in PBS→add 5 μl to the reaction (reaction volume: 200 μl) (final concentration: […])
(§5) Enzymes: • MMP-7: stock solution: 1 U/μl • MMP-2: stock solution: 0.05 μg/μl • MMP-9: stock solution: 0.05 μg/μl Results & Discussion Generation of the Peptide Library with Lb. helveticus CNCM I-2864 . . .

Assay [2] has as its target T2, MMP-2 (Homo sapiens, UniProt P08253).
T2 sequence (P08253 110-660): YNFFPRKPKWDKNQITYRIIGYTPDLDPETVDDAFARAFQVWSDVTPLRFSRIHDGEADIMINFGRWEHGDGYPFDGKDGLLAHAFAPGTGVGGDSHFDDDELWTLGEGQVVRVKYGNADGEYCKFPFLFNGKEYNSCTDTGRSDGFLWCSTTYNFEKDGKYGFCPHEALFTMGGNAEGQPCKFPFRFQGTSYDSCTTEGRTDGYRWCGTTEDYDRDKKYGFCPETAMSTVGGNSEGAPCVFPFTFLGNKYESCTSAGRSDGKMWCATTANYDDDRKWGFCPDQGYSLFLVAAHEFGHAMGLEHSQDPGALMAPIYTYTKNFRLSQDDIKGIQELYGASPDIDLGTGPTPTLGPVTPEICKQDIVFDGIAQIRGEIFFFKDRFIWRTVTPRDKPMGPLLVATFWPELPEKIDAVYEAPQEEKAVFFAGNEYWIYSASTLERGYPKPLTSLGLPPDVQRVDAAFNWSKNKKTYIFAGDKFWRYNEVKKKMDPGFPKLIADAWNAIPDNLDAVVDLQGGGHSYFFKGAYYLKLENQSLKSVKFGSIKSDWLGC
Described as above. Type of assay: biochemical. To be noted: flourescein conjugated gelatin; read-out: IC50 for the inhibition of MMP-2. The protocol:
as §1, §2, §3, §4, §5

In assay [3] the target is MMP-9 (Homo sapiens, UniProt P14780). Described as above. The format is biochemical. To be noted: flourescein conjugated gelatin; read-out: IC50 for the inhibition of MMP-9. Here is the method: as §1, §2, §3, §4, §5
For assay [4], the target named is T3, ACE (Homo sapiens, UniProt P12821).
T3 construct: purchased
In words: Angiotensin-converting-enzyme inhibitory test, FAPGG substrate. Particulars: substrate N-[3-2(furyl)acryloyl]L-phenylalanylglycylglycine; read-out: IC50 for the inhibition of ACE. Type of assay: biochemical. The protocol:
Angiotensin-Converting-Enzyme Inhibitory Test
This procedure is a rapid spectrophotometric method utilizing the synthetic tripeptide substrate N-[3-(2-furyl)acryloil]-L-phenylalanylglycylglycine (FAPGG). Km-value: 0.3 mM.
FAPGG was hydrolysed to furylacryloylphenylalanine (FAP) and glycylgylcine.
The ACE reagent and the ACE Calibrator were reconstituted according to the manufacturer's recommendations.
The assay was performed in quartz cuvets. 0.05 ml ACE Reagent Solution, 0.05 ml casein hydrolysate and 0.05 ml ACE calibrator were mixed and incubated at 37° C. for 10 minutes.
The absorbance at 340 nm was measured as a function of time.
The ACE activity in the sample was determined by comparing the sample reaction rate to that obtained with the ACE calibrator. The results are expressed as percentage with respect to the control.

For assay [5], the system named is HT-29 cells. Nature of the assay: Proliferation of HT-29 cells with synthetic peptides (percentage of counts). The format is cell-based, human. Particulars: for antiproliferative activity of synthetic peptides (in words): HT-29 cells. Here is the method:
Undifferentiated cells (passages 45-78) were maintained in glucose-containing DMEM supplemented with 10% FCS at 37° C. in a 5% CO2/air incubator. Culture medium was changed every two days until the cell monolayers reached 50% confluence. For stimulation assays, HT-29 cells were plated at 1.2*10^4 cells/well in 96-well flat-bottom plates. After incubation for 4 days, the amount of cells present in the wells before incubation with the samples was assessed adding neutral red solution in 4 wells and incubating the plate for 45 min. The HT-29 cells were then washed twice with serum-free media (inclusive the wells with neutral red solution). The wells colored with neutral red remained from now on free of any media.
Synthetic peptides that were tested on HT-29 cell line confirmed their antiproliferative potential.
The same experiment was performed with a shorter version of the former mentioned peptide: ENLLRFFVAPFPEVFG (SEQ ID NO:22) (αS1 33-48).

Assay [6] has as its system MMP. Nature of the assay: Matrix metalloproteinase inhibitory test, positive control. The format is biochemical. Particulars: 10 mM concentration; data not shown. The protocol:
as §1, §2, §3

The test system of assay [7] is MMPs. Particulars: background statement; cited from earlier work.

MMP-9, sequence (P14780 94-707, species assumed): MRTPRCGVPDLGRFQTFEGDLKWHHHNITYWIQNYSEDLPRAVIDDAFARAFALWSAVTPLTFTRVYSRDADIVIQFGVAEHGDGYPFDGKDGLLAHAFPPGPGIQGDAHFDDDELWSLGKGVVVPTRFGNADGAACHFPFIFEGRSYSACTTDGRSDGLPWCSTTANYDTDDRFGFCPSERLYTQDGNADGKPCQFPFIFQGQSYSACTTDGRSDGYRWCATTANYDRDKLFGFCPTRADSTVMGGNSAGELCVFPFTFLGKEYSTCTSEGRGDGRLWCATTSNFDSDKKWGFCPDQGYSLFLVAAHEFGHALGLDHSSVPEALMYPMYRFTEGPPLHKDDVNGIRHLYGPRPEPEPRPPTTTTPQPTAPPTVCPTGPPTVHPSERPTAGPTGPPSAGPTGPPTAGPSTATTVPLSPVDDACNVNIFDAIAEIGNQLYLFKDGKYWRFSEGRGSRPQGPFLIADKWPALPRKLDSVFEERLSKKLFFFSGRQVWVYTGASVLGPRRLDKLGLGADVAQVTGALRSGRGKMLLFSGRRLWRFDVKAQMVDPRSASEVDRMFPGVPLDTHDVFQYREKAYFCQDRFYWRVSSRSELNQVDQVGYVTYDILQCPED
T3 sequence (P12821 30-1306, species assumed): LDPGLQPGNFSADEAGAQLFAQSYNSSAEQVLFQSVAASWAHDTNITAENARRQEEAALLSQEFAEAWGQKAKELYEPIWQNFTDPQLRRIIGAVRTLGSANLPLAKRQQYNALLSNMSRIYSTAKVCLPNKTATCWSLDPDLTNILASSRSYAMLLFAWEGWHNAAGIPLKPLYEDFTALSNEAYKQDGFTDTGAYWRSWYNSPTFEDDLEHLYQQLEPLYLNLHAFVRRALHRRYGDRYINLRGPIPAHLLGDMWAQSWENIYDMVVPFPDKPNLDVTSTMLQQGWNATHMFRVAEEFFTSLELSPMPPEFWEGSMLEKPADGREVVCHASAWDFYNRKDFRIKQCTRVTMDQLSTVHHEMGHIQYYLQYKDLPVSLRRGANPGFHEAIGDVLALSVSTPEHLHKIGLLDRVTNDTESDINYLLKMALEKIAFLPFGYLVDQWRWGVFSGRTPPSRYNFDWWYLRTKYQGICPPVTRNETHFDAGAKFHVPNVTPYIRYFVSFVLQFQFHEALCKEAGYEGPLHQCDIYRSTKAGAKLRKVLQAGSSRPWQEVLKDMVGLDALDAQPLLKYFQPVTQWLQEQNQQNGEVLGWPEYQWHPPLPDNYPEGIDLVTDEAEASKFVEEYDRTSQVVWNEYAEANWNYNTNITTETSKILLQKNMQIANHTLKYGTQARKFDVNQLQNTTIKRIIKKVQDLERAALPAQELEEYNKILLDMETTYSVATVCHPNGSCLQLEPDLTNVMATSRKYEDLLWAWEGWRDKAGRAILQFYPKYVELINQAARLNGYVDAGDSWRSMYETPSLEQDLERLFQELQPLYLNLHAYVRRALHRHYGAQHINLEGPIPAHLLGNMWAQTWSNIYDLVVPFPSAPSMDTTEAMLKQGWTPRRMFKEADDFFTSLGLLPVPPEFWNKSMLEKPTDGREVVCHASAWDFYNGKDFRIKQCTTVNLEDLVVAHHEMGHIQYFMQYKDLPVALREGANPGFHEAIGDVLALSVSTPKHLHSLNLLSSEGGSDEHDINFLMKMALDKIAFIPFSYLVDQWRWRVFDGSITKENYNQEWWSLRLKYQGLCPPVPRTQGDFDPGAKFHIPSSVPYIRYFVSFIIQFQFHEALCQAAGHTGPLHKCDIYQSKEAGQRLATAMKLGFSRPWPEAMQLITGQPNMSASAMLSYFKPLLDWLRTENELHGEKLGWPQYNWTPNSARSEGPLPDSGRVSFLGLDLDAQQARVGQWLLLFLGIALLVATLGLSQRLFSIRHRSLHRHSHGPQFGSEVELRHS

For the compound `CC(C)C[C@H](NC(=O)[C@H](CC(C)C)NC(=O)[C@@H]1CCCN1C(=O)[C@H](CC(C)C)NC(=O)[C@@H]1CCCN1C(=O)[C@H](CC(C)C)NC(=O)[C@H](Cc1c[nH]cn1)NC(=O)[C@H](CC(C)C)NC(=O)[C@H](CC(N)=O)NC(=O)[C@@H](N)CCC(=O)O)C(=O)O` [ENLHLPLPLL] (H-ENLHLPLPLL-OH; N-terminus and C-terminus assumed), the IC50 (in general, the concentration that gives 50% inhibition) in assay [1] was 275 µM; in assay [2], 200 µM; in assay [3], 300 µM; in assay [4], 250 µM.

As to `CC(C)C[C@H](NC(=O)[C@H](CC(C)C)NC(=O)[C@H](CC(N)=O)NC(=O)[C@H](CCC(=O)O)NC(=O)[C@H](CC(N)=O)NC(=O)[C@@H](N)CC(C)C)C(=O)N[C@@H](CCCNC(=N)N)C(=O)N[C@@H](Cc1ccccc1)C(=O)N[C@@H](Cc1ccccc1)C(=O)N[C@H](C(=O)N[C@@H](C)C(=O)N1CCC[C@H]1C(=O)N[C@@H](Cc1ccccc1)C(=O)N1CCC[C@H]1C(=O)N[C@@H](CCC(=O)O)C(=O)N[C@H](C(=O)N[C@@H](Cc1ccccc1)C(=O)NCC(=O)O)C(C)C)C(C)C` [LNENLLRFFVAPFPEVFG] (H-LNENLLRFFVAPFPEVFG-OH; N-terminus and C-terminus assumed), the IC50 came out at 300 µM in assay [1], 250 µM in assay [2], 150 µM in assay [3] and 280 µM in assay [4]. In addition, the “antiproliferative activity of synthetic peptides (in words)” value in assay [5] is listed as “strongly inhibited proliferation”. The “% prolif (percentage of counts with respect to the control)” value was 56% in assay [5] (peptide concentration 2 μM); 44% in assay [5] (peptide concentration 4 μM); 160% in assay [5] (peptide concentration 8 μM); 114% in assay [5] (peptide concentration 17 μM); 131% in assay [5] (peptide concentration 33 μM); 119% in assay [5] (peptide concentration 66 μM). The “% prolif (percentage of counts with respect to the control)” value in assay [5] (peptide concentration 133 μM) was found to be 135%.

Take `CC(C)C[C@H](NC(=O)[C@H](CC(C)C)NC(=O)[C@H](CC(N)=O)NC(=O)[C@H](CCC(=O)O)NC(=O)[C@@H](N)CC(N)=O)C(=O)N[C@@H](CCCNC(=N)N)C(=O)N[C@@H](Cc1ccccc1)C(=O)N[C@@H](Cc1ccccc1)C(=O)N[C@H](C(=O)N[C@@H](C)C(=O)N1CCC[C@H]1C(=O)N[C@@H](Cc1ccccc1)C(=O)N1CCC[C@H]1C(=O)N[C@@H](CCC(=O)O)C(=O)N[C@H](C(=O)N[C@@H](Cc1ccccc1)C(=O)NCC(=O)O)C(C)C)C(C)C` [NENLLRFFVAPFPEVFG] (H-NENLLRFFVAPFPEVFG-OH; N-terminus and C-terminus assumed): the IC50 was determined as 850 µM in assay [1], 275 µM in assay [2], 50 µM in assay [3] and 55 µM in assay [4].

On to `c1cnc2c(c1)ccc1cccnc12` [o-phenantroline], for which the “MMP inhibition (in words)” value in assay [6] is given as “complete MMP inhibition”.

Turning to `CNC(=O)[C@@H](NC(=O)[C@H](CC(C)C)[C@H](O)C(=O)NO)C(C)(C)C` [marimastat], the IC50 entry in assay [7] was “micromolar range”.

As to `CC(C)C[C@H](NC(=O)[C@H](CC(C)C)NC(=O)[C@@H]1CCCN1C(=O)[C@H](CC(C)C)NC(=O)[C@@H]1CCCN1C(=O)[C@H](CC(C)C)NC(=O)[C@H](Cc1c[nH]cn1)NC(=O)[C@H](CC(C)C)NC(=O)[C@H](CC(N)=O)NC(=O)[C@H](CCC(=O)O)NC(=O)[C@@H](N)C(C)C)C(=O)O` [VENLHLPLPLL] (H-VENLHLPLPLL-OH; N-terminus and C-terminus assumed), the IC50 in assay [1] is 250 µM; in assay [2] it was 150 µM; in assay [3], 300 µM; in assay [4] it was 175 µM.

Take `CC(C)C[C@H](NC(=O)[C@H](CC(C)C)NC(=O)[C@@H]1CCCN1C(=O)[C@H](CC(C)C)NC(=O)[C@@H]1CCCN1C(=O)[C@H](CC(C)C)NC(=O)[C@H](Cc1c[nH]cn1)NC(=O)[C@H](CC(C)C)NC(=O)[C@@H](N)CC(N)=O)C(=O)O` [NLHLPLPLL] (H-NLHLPLPLL-OH; N-terminus and C-terminus assumed): the IC50 in assay [1] amounted to 1200 µM; in assay [2], 450 µM; in assay [3], 600 µM; in assay [4] it was 15 µM.

With `CC(C)[C@H](NC(=O)[C@H](CCC(=O)O)NC(=O)[C@@H]1CCCN1C(=O)[C@H](Cc1ccccc1)NC(=O)[C@@H]1CCCN1C(=O)[C@H](C)NC(=O)[C@@H](NC(=O)[C@@H](N)Cc1ccccc1)C(C)C)C(=O)N[C@@H](Cc1ccccc1)C(=O)NCC(=O)O` [FVAPFPEVFG] (H-FVAPFPEVFG-OH; N-terminus and C-terminus assumed), the IC50 in assay [1] is 300 µM; in assay [2], 500 µM; in assay [3] it was 400 µM; in assay [4], 650 µM.

Regarding `CC(C)C[C@H](NC(=O)[C@H](CC(C)C)NC(=O)[C@H](CC(N)=O)NC(=O)[C@@H](N)CCC(=O)O)C(=O)N[C@@H](CCCNC(=N)N)C(=O)N[C@@H](Cc1ccccc1)C(=O)N[C@@H](Cc1ccccc1)C(=O)N[C@H](C(=O)N[C@@H](C)C(=O)N1CCC[C@H]1C(=O)N[C@@H](Cc1ccccc1)C(=O)N1CCC[C@H]1C(=O)N[C@@H](CCC(=O)O)C(=O)N[C@H](C(=O)N[C@@H](Cc1ccccc1)C(=O)NCC(=O)O)C(C)C)C(C)C` [ENLLRFFVAPFPEVFG] (H-ENLLRFFVAPFPEVFG-OH; N-terminus and C-terminus assumed), the IC50 is 1000 µM in assay [1], 425 µM in assay [2], 150 µM in assay [3] and 250 µM in assay [4]. The “antiproliferative activity of synthetic peptides (in words)” value in assay [5] is reported as “antiproliferative pattern similar to the one observed for LNENLLRFFVAPFPEVFG”.

(Values after patent US7597904B2, “Metalloproteinase inhibitory agent” (Nestec S.A., priority 2004, dated 2009).)
